Measured values from patent US20220202811A1, “TREATMENT FOR RETINOIC ACID RECEPTOR-RELATED ORPHAN RECEPTOR Ɣ (RORƔ)-DEPENDENT CANCERS” (The Regents of the University of California, priority 2019, published 2022).
“Also recorded” adds a separate entry of the source.

What was measured:
pancreatic cancer cell [1] = assay: in vitro sphere formation, antagonists of Table 2; type: cell-based, mouse; design: key: ✓✓✓✓: dose response observed; growth suppressed by 8-fold or more relative to control; ✓✓✓: dose response observed; growth suppressed between 4-fold and 8-fold relative to control; ✓✓: dose response observed; growth suppressed by less than 4-fold relative to control; ✓: response observed only at highest drug dose tested; —: no detectable response; settings: extent of growth suppression relative to control
Protocol: Pancreatic tumorsphere formation assays were performed and modified from (Rovira et al., 2010). Briefly, low-passage (<6 passages) WT or REM2-KP^f/fC cell lines were infected with lentiviral particles containing shRNAs; positively infected (red) cells were sorted 72 hours after transduction. 100-300 infected cells were suspended in tumorsphere media: 100 μl DMEM F-12 (Gibco, Life Technologies) containing 1× B-27 supplement (Gibco, Life Technologies), 3% FBS, 100 μM B-mercaptoethanol (Gibco, Life Technologies), 1× non-essential amino acids (Gibco, Life Technologies), 1× N2 supplement (Gibco, Life Technologies), 20 ng/ml EGF (Gibco, Life Technologies), 20 ng/ml bFGF2 (Gibco, Life Technologies), and 10 ng/ml ESGRO mLIF (Thermo Fisher). Cells in media were plated in 96-well ultra-low adhesion culture plates (Costar) and incubated at 37° C. for 7 days. KP^f/fC in vitro tumorsphere formation studies were conducted at a minimum of n=3 independent wells per cell line across two independent shRNA of n=3 wells; however, the majority of these experiments were additionally completed in >1 independently-derived cell lines n=3, at n=3 wells per shRNA.

[2] = system: primary patient-derived PDX1535 organoids; assay: PDX1535 organoid assay; type: cell-based, human
Protocol: PDX1535 organoids were derived from a patient of pancreatic cancer. Primary patient organoids were established by digesting patient-derived xenografts for 1 hour at 37° C. in RPMI containing 2.5% FBS, 5 mg/ml Collagenase II, and 1.25 mg/ml Dispase II, followed by passage through a […] mesh filter. Cells were plated at a density of 1.5×10^5 cells per 50 μl Matrigel. After domes were solidified, growth medium was added as follows: RPMI containing 50% Wnt3a conditioned media, 10% RSpondin1-conditioned media, 2.5% FBS, 50 ng/ml EGF, 5 mg/ml Insulin, 12.5 ng/ml hydrocortisone, and 14 μM Rho Kinase Inhibitor. After establishment, organoids were passaged and maintained. Briefly, organoids were isolated using Cell Recovery Solution (Corning 354253), then dissociated into single cell suspension with TrypLE Express (ThermoFisher 12604) supplemented with 25 μg/ml DNase I (Roche) and 14 μM Rho Kinase Inhibitor (Y-27632, Sigma). Cells were split 1:2 into 20 μl domes plated on pre-warmed 48-well plates. Domes were incubated at 37° C. for 5 min, then covered with human complete organoid feeding media without Wnt3a-conditioned media. […] The organoids were imaged and measured at the end of treatment. […] Moreover, the anti-cancer effect of JTE-151 was determined in an organoid assay using pancreatic cancer cells derived from mice bearing primary patient-derived xenografts.

[3] = system: KP^f/fC derived flank tumors; assay: KP^f/fC flank tumors in immunocompetent mice; type: in vivo, mouse; settings: gemcitabine alone
[4] = system: primary patient-derived PDX1356 organoids; assay: PDX1356 organoid assay; type: cell-based, human; settings: 0.05 nM gemcitabine alone
Protocol: PDX1535 organoids were derived from a patient of pancreatic cancer. Primary patient organoids were established by digesting patient-derived xenografts for 1 hour at 37° C. in RPMI containing 2.5% FBS, 5 mg/ml Collagenase II, and 1.25 mg/ml Dispase II, followed by passage through a […] mesh filter. Cells were plated at a density of 1.5×10^5 cells per 50 μl Matrigel. After domes were solidified, growth medium was added as follows: RPMI containing 50% Wnt3a conditioned media, 10% RSpondin1-conditioned media, 2.5% FBS, 50 ng/ml EGF, 5 mg/ml Insulin, 12.5 ng/ml hydrocortisone, and 14 μM Rho Kinase Inhibitor. After establishment, organoids were passaged and maintained. Briefly, organoids were isolated using Cell Recovery Solution (Corning 354253), then dissociated into single cell suspension with TrypLE Express (ThermoFisher 12604) supplemented with 25 μg/ml DNase I (Roche) and 14 μM Rho Kinase Inhibitor (Y-27632, Sigma). Cells were split 1:2 into 20 μl domes plated on pre-warmed 48-well plates. Domes were incubated at 37° C. for 5 min, then covered with human complete organoid feeding media without Wnt3a-conditioned media.
As shown in FIGS. 65-66, the anti-cancer effect of JTE-151 was also tested using the organoid assay on primary patient-derived PDX1356 pancreatic cancer cells. […] The volume of organoids was expressed as relative to control.

pancreatic cancer cell [5] = assay: in vivo tumor growth, antagonists of Table 2; design: species or system mouse; key: ✓✓✓✓: dose response observed; growth suppressed by 8-fold or more relative to control; ✓✓✓: dose response observed; growth suppressed between 4-fold and 8-fold relative to control; ✓✓: dose response observed; growth suppressed by less than 4-fold relative to control; ✓: response observed only at highest drug dose tested; —: no detectable response; settings: extent of growth suppression relative to control

Row | Structure (SMILES) | in vitro sphere formation (pancreatic cancer cell [1]) | in vivo tumor growth (pancreatic cancer cell [5]) | also measured
1 | CC(C)(C)NC(=O)c1cncn1C1CCN(c2ccc(-c3nnc(C(F)(F)F)o3)cn2)CC1 [Wnk463] | ✓✓ (dose response observed; growth suppressed by less than 4-fold relative to control) |  | 
2 | Nc1ccn([C@@H]2O[C@H](CO)[C@@H](O)C2(F)F)c(=O)n1 [gemcitabine] |  |  | organoid growth ([2]; 0.025 nM gemcitabine alone): decreased PDZ1535 organoid growth, although not statistically significant; organoid volume / growth ([2]; 0.05 nM gemcitabine alone): visibly reduced; also recorded: significant inhibition; cancer stem cell burden [3]: no impact; organoid volume [4]: significant reduction; also recorded: visibly decreased; also recorded: visibly reduced
3 | NCCCCCCCN=C(N)N [GC7] | ✓ |  | 
4 | O=C1/C(=C/c2ccccc2)C(NC2CCCCC2)c2ccccc21 (centres unmarked) [BCl] | ✓✓ (dose response observed; growth suppressed by less than 4-fold relative to control) | — | 
5 | Cl[TeH]1(Cl)(Cl)OCCO1 [AS101] | ✓✓✓ (dose response observed; growth suppressed between 4-fold and 8-fold relative to control) | — | 
6 | Cc1c(F)cccc1NC(=O)Nc1ccc(Cl)c(S(=O)(=O)[C@H]2CCCNC2)c1O [Danirixin] | — |  | 
7 | Oc1c(Br)cc(Br)cc1-c1[nH]c(Br)c(Br)c1Br [Pentabromopseudilin] | ✓✓ (dose response observed; growth suppressed by less than 4-fold relative to control) |  | 
8 | CCc1cc(Cl)c(OC)c(C(=O)NC[C@@H]2CCCN2CC)c1O [Eticlopride] | — | — | 
